{
  "source": "patent US5711967A",
  "about": "(Spirig AG, Pharmazeutische Praeparate, priority 1991, dated 1998)",
  "origin": "cited, not measured here",
  "key": {"[1]": {"details": "above pKa value of approx. 4-5"}, "mucosa": {"test_system": "mucosa", "details": "release in the stomach"}},
  "data": [
    {"smiles": "O=C(O)Cc1ccccc1Nc1c(Cl)cccc1Cl", "note": "[diclofenac]", "values": [
      {"measurement": "solubility in aqueous media", "setting": "[1]", "value": "increases considerably above this value"},
      {"measurement": "distribution into the synovial fluid", "setting": "from the blood plasma", "value": "concentrate in the synovial fluid, with a delay"},
      {"measurement": "elimination half-life", "setting": "non-delayed-action diclofenac", "value": "1 to 2", "unit": "h"},
      {"measurement": "blood concentration half-life", "setting": "oral diclofenac preparations", "value": "one to two"},
      {"measurement": "action on mucosa", "setting": "mucosa", "value": "mucosa-irritating and/or mucosa-damaging"}
    ]}
  ]
}
